The record followed here is PubChem BioAssay (NCI).

Test systems include HCT-15 colon; KM12 colon; NCI-H23 lung; NCI-H460 lung; OVCAR-4 ovarian; SK-MEL-5 melanoma; TK-10 renal; DU-145 prostate; NCI/ADR-RES ovarian; MDA-N.
Common to all, as to assay: growth of human tumour cells (NCI), 48 h

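Briefly, cells in 96-well plates were exposed to five compound concentrations for 48 h, and endpoints were estimated by linear interpolation. Abbreviation: GI50, concentration required for 50% inhibition of growth. The concentration for full growth arrest is given as TGI.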

In the case of `O=C1CCCCCCCCCCC1CN1CCCCC1` (stereo not drawn), the TGI in the test on HCT-15 colon was over 100 µM; in the test on KM12 colon it was over 100 µM; with NCI-H23 lung it was over 100 µM; with NCI-H460 lung it was over 100 µM; with OVCAR-4 ovarian, over 100 µM; in the test with SK-MEL-5 melanoma, 28.3 µM. Moreover, the TGI with TK-10 renal was over 100 µM.

For `N#Cc1c(-c2ccccc2)[nH]c(=O)n(C2OC(CO)C(O)C(O)C2O)c1=O` (stereo not drawn), the TGI in the test on DU-145 prostate, in the test with HCT-15 colon, in the test with KM12 colon, in the test on NCI-H23 lung, in the test with NCI-H460 lung and in the test on NCI/ADR-RES ovarian was over 100 µM each time. For the same compound, the TGI with OVCAR-4 ovarian, in the test on SK-MEL-5 melanoma and with TK-10 renal was over 100 µM throughout.

As for `CC(=O)OC[C@@H](OC(C)=O)[C@H](OC(C)=O)[C@@H]1OC(C)(C)O[C@@H]1C1SCCCS1`, the TGI in the test with DU-145 prostate, with KM12 colon, in the test on MDA-N, with NCI-H23 lung, in the test with NCI-H460 lung and in the test on OVCAR-4 ovarian was over 100 µM each time. In addition, the TGI in the test on SK-MEL-5 melanoma and in the test with TK-10 renal was over 100 µM throughout.

Turning to `Nc1nc(N)c2cc(NCc3ccc(Cl)c(Cl)c3)ccc2n1`, the GI50 in the test with DU-145 prostate was 1.65 µM; with HCT-15 colon it was 0.765 µM; in the test with KM12 colon, 1.29 µM; in the test on NCI-H23 lung, 1.19 µM; with NCI/ADR-RES ovarian, 2.88 µM; in the test with OVCAR-4 ovarian it was 1.34 µM. Further, the GI50 in the test on SK-MEL-5 melanoma was 1.5 µM; with TK-10 renal, 1.59 µM. In addition, the TGI in the test with DU-145 prostate came out at 3.01 µM; in the test on HCT-15 colon, 2.02 µM; in the test with KM12 colon, 2.59 µM; in the test on NCI-H23 lung, 2.61 µM; with NCI/ADR-RES ovarian it was 16.6 µM; in the test on OVCAR-4 ovarian, 2.61 µM. For the same compound, the TGI turned out to be 2.83 µM in the test with SK-MEL-5 melanoma and 2.93 µM with TK-10 renal.

As to `NC1=CN2c3ccccc3N(CC(=O)O)C2C=C1` (stereo not drawn), the TGI with DU-145 prostate, in the test with HCT-15 colon, with KM12 colon, with NCI-H23 lung, in the test on NCI-H460 lung and in the test on NCI/ADR-RES ovarian was over 100 µM throughout. Besides, the TGI in the test with OVCAR-4 ovarian, in the test with SK-MEL-5 melanoma and in the test on TK-10 renal was over 100 µM throughout.

As for `COc1ccc(CN=C(N)N)c2ccccc12`, the TGI in the test on DU-145 prostate, in the test with HCT-15 colon, in the test with KM12 colon, in the test with MDA-N, with NCI-H23 lung and in the test with NCI/ADR-RES ovarian was over 100 µM each time. In addition, the TGI in the test on SK-MEL-5 melanoma was 38 µM; with TK-10 renal, over 100 µM.

With `COc1cc2cc(C(=O)N3CC(CCl)c4c3cc(N)c3ccccc43)[nH]c2c(OC)c1OC` (stereo not drawn), the TGI in the test with DU-145 prostate was 0.0549 µM; in the test with HCT-15 colon, 1.58 µM; in the test with KM12 colon it was 0.0207 µM; with NCI-H23 lung, under 0.01 µM; in the test with NCI/ADR-RES ovarian it was under 0.01 µM; with OVCAR-4 ovarian it was under 0.045 µM. The compound also returned a TGI in the test on TK-10 renal of 2.32 µM.

Turning to `N#Cc1c(-c2ccccc2)c(N=Nc2ccc(Cl)cc2)c(=O)n2c1[nH]c1ccccc12`, the TGI in the test with HCT-15 colon, with KM12 colon, in the test with MDA-N, in the test on NCI-H23 lung, in the test with NCI-H460 lung and with NCI/ADR-RES ovarian was over 100 µM each time. The TGI was 85.6 µM in the test with OVCAR-4 ovarian, over 100 µM with SK-MEL-5 melanoma and over 100 µM in the test on TK-10 renal.

In the case of `Cc1cc(=O)oc2c(C)c(OCCCOc3ccc4c(C)cc(=O)oc4c3C)ccc12`, the TGI in the test with HCT-15 colon, with KM12 colon, in the test with NCI-H23 lung, in the test with NCI-H460 lung, in the test on SK-MEL-5 melanoma and with TK-10 renal was over 100 µM throughout.

On to `CC1=NN(c2nc(N)nc(CC#N)n2)C(C)(C)C1`, for which the TGI in the test with DU-145 prostate, with HCT-15 colon, in the test on KM12 colon, in the test on NCI-H23 lung, in the test with NCI-H460 lung and in the test on NCI/ADR-RES ovarian was over 100 µM throughout. Further, the TGI in the test on OVCAR-4 ovarian, with SK-MEL-5 melanoma and in the test on TK-10 renal was over 100 µM in each case.

On to `Cc1c(C(=O)/C=C/c2ccccc2O)c(=O)n(-c2ccccc2)n1C`, for which the TGI in the test on HCT-15 colon is 60.5 µM; with NCI-H460 lung it was 53.3 µM; in the test with SK-MEL-5 melanoma, 28.6 µM; in the test with TK-10 renal it was over 100 µM.

In the case of `FC1C2=C(SC1(F)F)C1CCC2C1` (stereo not drawn), the TGI with DU-145 prostate, in the test with HCT-15 colon, with KM12 colon, in the test with NCI-H23 lung, in the test with NCI-H460 lung and with NCI/ADR-RES ovarian was over 100 µM each time. In addition, the TGI in the test on OVCAR-4 ovarian, in the test on SK-MEL-5 melanoma and with TK-10 renal was over 100 µM throughout.

Regarding `O=C1CC(c2cccc(Br)c2)n2cccc21` (stereo not drawn), the TGI in the test on DU-145 prostate, in the test on HCT-15 colon, in the test on KM12 colon, with NCI-H23 lung, in the test with NCI/ADR-RES ovarian and with OVCAR-4 ovarian was over 100 µM throughout. The same compound had a TGI in the test with TK-10 renal of over 100 µM.

Regarding `CC(=O)N=C1N(/C=C2\C(=O)Oc3ccccc3C2=O)C(=O)/C(=C/c2ccc(Cl)cc2Cl)N1C`, the TGI in the test on DU-145 prostate, in the test with HCT-15 colon, with KM12 colon, in the test with NCI-H23 lung, with NCI/ADR-RES ovarian and in the test with OVCAR-4 ovarian was over 100 µM in each case. This compound displayed a TGI with SK-MEL-5 melanoma of over 100 µM.

As for `CC1=C(C(=O)c2ccccc2)C23C(=O)N(c4ccccc4)C(=O)C2=C(O)C=CC3(O)N1` (stereo not drawn), the TGI is over 100 µM with DU-145 prostate; over 100 µM with HCT-15 colon; 53.5 µM with KM12 colon; over 100 µM with NCI-H23 lung; over 100 µM in the test on NCI-H460 lung; over 100 µM with NCI/ADR-RES ovarian. In addition, the TGI was over 100 µM in the test on OVCAR-4 ovarian, 41.9 µM in the test on SK-MEL-5 melanoma and over 100 µM in the test on TK-10 renal.

On to `COc1ccc(C2C3COc4ccccc4C3=NN2c2ccccc2)cc1` (stereo not drawn), for which the TGI in the test with HCT-15 colon, in the test with KM12 colon, with MDA-N, in the test on NCI-H23 lung, with NCI-H460 lung and with NCI/ADR-RES ovarian was over 100 µM in each case. Besides, the TGI in the test on OVCAR-4 ovarian, with SK-MEL-5 melanoma and with TK-10 renal was over 100 µM each time.

`C=CCO[C@]1(CC=C)C(=O)C(=O)OC1C1COC(C)(C)O1` (stereo partly drawn): the TGI is over 100 µM with DU-145 prostate; 42 µM in the test with HCT-15 colon; 39.3 µM in the test with KM12 colon; over 100 µM in the test on MDA-N; over 100 µM in the test on NCI-H23 lung; over 100 µM with NCI-H460 lung. The TGI in the test on NCI/ADR-RES ovarian was over 100 µM; with SK-MEL-5 melanoma, 97.6 µM.

For `CC1C2(C)OC(=N)C(C#N)(C(c3cccc([N+](=O)[O-])c3)O2)C1(C#N)C#N` (stereo not drawn), the TGI was over 100 µM with DU-145 prostate; over 100 µM with KM12 colon; 32.4 µM in the test on MDA-N; over 100 µM with NCI-H23 lung; 29.7 µM with NCI-H460 lung; over 100 µM in the test with NCI/ADR-RES ovarian. Also, the TGI with SK-MEL-5 melanoma is 20.9 µM; in the test on TK-10 renal, over 100 µM.

Regarding `CC(C)(C)C(=O)OC12/C(=N/O)CCCCCC1c1ccccc12` (stereo not drawn), the TGI with HCT-15 colon turned out to be 33 µM; with KM12 colon, 30.1 µM; in the test on NCI-H23 lung, 31.3 µM; in the test on NCI-H460 lung, 32.3 µM; with OVCAR-4 ovarian it was 33 µM; in the test on SK-MEL-5 melanoma it was 31.7 µM. The TGI with TK-10 renal stood at 30.1 µM.

For `O=C(Cc1ccccc1)Nn1c(-c2ccccc2)nc2ccccc2c1=O`, the TGI in the test with DU-145 prostate, in the test on KM12 colon, with MDA-N, in the test with NCI-H23 lung, in the test on NCI-H460 lung and in the test with OVCAR-4 ovarian was over 100 µM in each case. Besides, the TGI with SK-MEL-5 melanoma and in the test on TK-10 renal was over 100 µM each time.

As to `C=C1C(=O)O[C@H]2[C@@H](O)[C@H](C)CCC[C@]3(C)O[C@H]3CC[C@@]3(C)O[C@@H]3C[C@@H]12`, the TGI with DU-145 prostate is 12.9 µM; with HCT-15 colon it was 4.74 µM; with KM12 colon, 15.3 µM; in the test with NCI-H23 lung, 13 µM; in the test with NCI/ADR-RES ovarian, 19 µM; in the test on OVCAR-4 ovarian, 9.85 µM. This compound registered a TGI in the test with SK-MEL-5 melanoma of 10.5 µM.

`CN(C)C(=O)OC(Cn1cncn1)(Cn1cncn1)c1ccc(Cl)cc1Cl`: the TGI in the test with DU-145 prostate, in the test on HCT-15 colon, in the test with KM12 colon, in the test on NCI-H460 lung, in the test with NCI/ADR-RES ovarian and in the test on OVCAR-4 ovarian was over 100 µM throughout. The TGI with SK-MEL-5 melanoma and in the test with TK-10 renal was over 100 µM throughout.

With `COC(=O)c1cnc(Cl)cn1`, the TGI with DU-145 prostate was over 100 µM; in the test on HCT-15 colon, 38.5 µM; in the test on KM12 colon, over 100 µM; in the test on NCI-H23 lung it was 54 µM; in the test on NCI-H460 lung, over 100 µM; in the test on NCI/ADR-RES ovarian it was over 100 µM. The TGI in the test on OVCAR-4 ovarian was 45.5 µM; in the test on SK-MEL-5 melanoma it was over 100 µM; in the test on TK-10 renal it was over 100 µM.
